Reference: ChEMBL document CHEMBL4477233, “Discovery of novel TAOK2 inhibitor scaffolds from high-throughput screening” (Bioorg Med Chem Lett, 2016)

Key:
[1] = molecular target: Cyclin-dependent kinase 1 (Homo sapiens) (UniProt P06493); assay: Inhibition of human CDK1; details: concentration not given here
[2] = molecular target: RAF proto-oncogene serine/threonine-protein kinase (Homo sapiens) (UniProt P04049); assay: Inhibition of human RAF-1; details: concentration not given here
[3] = molecular target: Glycogen synthase kinase-3 beta (Homo sapiens) (UniProt P49841); assay: Inhibition of human GSK3beta; details: concentration not given here
Glycogen synthase kinase-3 beta (Homo sapiens), sequence (P49841 whole entry, looked up): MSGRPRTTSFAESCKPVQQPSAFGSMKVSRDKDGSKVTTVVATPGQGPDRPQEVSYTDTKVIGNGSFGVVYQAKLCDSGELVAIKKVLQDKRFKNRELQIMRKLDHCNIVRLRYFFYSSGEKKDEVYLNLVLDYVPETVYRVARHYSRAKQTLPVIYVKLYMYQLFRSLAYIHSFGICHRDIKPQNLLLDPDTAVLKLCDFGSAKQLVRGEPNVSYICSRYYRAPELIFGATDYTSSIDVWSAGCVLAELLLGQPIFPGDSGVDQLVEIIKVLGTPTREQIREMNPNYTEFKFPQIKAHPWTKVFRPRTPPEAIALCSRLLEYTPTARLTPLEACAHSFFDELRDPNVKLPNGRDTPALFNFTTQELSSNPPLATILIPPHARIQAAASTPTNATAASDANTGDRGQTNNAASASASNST

[4] = molecular target: Mitogen-activated protein kinase 8 (Homo sapiens) (UniProt P45983); assay: Inhibition of human JNK1; details: concentration not given here
Mitogen-activated protein kinase 8 (Homo sapiens), sequence (P45983 whole entry): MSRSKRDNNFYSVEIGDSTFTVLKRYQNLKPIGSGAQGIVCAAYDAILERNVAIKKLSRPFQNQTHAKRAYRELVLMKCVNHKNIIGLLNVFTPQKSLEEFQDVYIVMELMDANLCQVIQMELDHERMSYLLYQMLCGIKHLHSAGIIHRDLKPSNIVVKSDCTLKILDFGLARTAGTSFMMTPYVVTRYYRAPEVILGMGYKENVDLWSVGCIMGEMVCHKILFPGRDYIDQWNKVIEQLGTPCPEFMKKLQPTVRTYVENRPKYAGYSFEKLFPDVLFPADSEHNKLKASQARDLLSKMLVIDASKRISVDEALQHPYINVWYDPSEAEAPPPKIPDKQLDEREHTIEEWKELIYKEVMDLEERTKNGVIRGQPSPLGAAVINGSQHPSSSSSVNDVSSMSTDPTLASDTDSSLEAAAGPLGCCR

[5] = molecular target: T1, Interleukin-1 receptor-associated kinase 4 (Homo sapiens) (UniProt Q9NWZ3); assay: Inhibition of human IRAK4; details: concentration not given here
T1 sequence (whole entry): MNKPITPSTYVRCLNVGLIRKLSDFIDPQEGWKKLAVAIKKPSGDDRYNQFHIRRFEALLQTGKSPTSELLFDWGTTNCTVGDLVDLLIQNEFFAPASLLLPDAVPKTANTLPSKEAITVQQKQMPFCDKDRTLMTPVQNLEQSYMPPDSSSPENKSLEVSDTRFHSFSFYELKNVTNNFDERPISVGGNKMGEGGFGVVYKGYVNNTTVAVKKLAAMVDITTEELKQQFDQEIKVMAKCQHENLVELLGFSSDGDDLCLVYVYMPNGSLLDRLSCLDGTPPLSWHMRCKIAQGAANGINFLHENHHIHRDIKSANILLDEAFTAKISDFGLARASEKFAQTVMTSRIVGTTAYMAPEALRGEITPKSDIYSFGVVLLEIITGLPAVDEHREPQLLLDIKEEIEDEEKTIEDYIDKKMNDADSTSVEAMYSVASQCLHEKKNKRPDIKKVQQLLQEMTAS

[6] = molecular target: T2, Serine/threonine-protein kinase TAO2 (Rattus norvegicus, UniProt Q9JLS3); assay: Inhibition of rat TAOK2 (1 to 320 residues) expressed in Baculovirus/insect cell expression system using MBP as substrate measured after 10 mins in presence of [32P]ATP by radiometric assay
T2 sequence (Q9JLS3 whole entry): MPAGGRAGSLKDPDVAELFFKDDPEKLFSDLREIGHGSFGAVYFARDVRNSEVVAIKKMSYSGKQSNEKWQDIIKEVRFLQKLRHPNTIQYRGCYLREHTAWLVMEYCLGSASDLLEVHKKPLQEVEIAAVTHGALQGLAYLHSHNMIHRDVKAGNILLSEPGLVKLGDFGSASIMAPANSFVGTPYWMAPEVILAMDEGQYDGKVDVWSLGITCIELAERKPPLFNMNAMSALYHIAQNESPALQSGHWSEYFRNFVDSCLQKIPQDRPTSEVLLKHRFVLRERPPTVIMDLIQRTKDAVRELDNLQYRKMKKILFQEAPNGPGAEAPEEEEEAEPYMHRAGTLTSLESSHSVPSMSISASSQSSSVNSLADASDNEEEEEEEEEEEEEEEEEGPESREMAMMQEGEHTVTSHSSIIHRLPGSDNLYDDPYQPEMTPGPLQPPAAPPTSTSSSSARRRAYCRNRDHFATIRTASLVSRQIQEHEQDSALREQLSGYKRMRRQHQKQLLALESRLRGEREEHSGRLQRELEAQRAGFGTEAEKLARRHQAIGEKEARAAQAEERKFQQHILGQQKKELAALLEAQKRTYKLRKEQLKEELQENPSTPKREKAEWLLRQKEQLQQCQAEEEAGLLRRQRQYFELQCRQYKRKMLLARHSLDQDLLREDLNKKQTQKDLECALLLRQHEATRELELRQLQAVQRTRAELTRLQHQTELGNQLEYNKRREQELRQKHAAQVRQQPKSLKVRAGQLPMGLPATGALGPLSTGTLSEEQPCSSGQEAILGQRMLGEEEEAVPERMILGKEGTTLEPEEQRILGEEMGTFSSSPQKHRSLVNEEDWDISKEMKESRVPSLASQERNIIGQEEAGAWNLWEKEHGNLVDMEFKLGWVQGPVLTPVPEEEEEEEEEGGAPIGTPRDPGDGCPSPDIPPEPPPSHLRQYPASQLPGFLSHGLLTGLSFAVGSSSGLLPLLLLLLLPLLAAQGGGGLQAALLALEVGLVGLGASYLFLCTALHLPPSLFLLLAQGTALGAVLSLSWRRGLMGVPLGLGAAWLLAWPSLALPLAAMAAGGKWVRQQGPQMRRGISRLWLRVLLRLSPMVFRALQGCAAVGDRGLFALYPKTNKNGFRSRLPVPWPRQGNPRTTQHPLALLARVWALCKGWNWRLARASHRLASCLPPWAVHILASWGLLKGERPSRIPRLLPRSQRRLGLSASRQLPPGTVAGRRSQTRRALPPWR

[7] = molecular target: Mitogen-activated protein kinase kinase kinase kinase 4 (Homo sapiens) (UniProt O95819); assay: Inhibition of human HGK; details: concentration not given here
Mitogen-activated protein kinase kinase kinase kinase 4 (Homo sapiens), sequence (O95819 2-1239 limits assumed): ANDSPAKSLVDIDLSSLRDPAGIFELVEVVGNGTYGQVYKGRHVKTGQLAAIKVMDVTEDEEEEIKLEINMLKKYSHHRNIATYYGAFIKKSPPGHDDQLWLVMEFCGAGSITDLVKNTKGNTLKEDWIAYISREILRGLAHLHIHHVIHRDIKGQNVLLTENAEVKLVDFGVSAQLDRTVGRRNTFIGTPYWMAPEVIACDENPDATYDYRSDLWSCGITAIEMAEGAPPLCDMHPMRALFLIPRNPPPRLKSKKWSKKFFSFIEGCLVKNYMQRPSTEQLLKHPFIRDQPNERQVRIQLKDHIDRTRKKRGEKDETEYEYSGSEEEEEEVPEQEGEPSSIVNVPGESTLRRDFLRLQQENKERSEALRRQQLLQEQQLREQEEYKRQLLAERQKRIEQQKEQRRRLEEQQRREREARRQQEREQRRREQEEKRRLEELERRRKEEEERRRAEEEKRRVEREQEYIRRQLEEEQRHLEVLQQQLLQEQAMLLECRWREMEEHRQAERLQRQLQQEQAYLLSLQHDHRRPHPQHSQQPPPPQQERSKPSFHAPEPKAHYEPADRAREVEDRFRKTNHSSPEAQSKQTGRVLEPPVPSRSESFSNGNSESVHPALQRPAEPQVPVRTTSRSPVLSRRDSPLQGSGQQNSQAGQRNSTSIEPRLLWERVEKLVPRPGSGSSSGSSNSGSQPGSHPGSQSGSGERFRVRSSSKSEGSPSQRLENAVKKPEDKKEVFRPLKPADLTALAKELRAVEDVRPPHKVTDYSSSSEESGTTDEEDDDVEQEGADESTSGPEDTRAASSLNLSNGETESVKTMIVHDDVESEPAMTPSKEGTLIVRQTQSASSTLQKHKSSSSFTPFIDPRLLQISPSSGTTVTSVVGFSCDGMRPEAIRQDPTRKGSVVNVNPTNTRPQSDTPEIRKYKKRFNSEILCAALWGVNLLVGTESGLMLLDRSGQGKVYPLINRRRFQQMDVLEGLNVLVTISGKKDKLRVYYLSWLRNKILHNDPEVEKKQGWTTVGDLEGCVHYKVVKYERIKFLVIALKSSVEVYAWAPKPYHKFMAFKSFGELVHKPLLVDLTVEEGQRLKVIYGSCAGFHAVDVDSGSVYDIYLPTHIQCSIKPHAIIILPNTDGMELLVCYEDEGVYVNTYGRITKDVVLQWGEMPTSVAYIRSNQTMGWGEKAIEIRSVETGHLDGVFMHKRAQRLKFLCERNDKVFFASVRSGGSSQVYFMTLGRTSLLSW

RAF proto-oncogene serine/threonine-protein kinase (Homo sapiens), sequence (P04049 whole entry): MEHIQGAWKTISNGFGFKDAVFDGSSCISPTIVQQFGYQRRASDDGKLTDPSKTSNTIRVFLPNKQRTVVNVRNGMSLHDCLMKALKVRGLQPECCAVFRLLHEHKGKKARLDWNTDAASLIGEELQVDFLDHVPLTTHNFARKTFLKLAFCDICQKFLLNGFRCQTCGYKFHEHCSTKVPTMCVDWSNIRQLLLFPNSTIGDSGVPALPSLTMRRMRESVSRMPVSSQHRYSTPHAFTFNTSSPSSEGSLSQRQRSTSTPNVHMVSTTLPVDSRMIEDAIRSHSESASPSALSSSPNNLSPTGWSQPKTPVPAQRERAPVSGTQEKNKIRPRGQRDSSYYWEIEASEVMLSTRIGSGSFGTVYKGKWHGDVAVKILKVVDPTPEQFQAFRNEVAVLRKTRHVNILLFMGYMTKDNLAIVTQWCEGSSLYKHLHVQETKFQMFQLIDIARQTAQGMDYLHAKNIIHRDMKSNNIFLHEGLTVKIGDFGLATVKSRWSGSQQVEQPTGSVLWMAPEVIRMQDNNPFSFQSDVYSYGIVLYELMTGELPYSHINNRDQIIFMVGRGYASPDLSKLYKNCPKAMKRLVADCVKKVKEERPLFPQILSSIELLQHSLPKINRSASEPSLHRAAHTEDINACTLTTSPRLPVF
Cyclin-dependent kinase 1 (Homo sapiens), sequence (P06493 whole entry, looked up): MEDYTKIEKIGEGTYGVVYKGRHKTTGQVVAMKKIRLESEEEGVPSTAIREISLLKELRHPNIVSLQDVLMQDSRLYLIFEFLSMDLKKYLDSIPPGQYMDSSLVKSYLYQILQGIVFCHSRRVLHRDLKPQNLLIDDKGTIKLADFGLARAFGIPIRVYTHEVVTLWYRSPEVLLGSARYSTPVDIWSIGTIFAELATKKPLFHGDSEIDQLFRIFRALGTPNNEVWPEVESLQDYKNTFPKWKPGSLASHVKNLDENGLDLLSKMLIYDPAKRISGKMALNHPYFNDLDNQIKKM

inhibition [1]: > 50%
inhibition [2]: > 50%
inhibition [3]: > 50%
inhibition [4]: > 50%
inhibition [5]: > 50%
IC50 [6]: 300 nM
inhibition [7]: > 50%
Structure (SMILES): CCC(=O)Nc1nc(C)c(-c2csc(Nc3cc(OC)ccc3OC)n2)s1
